Experimental data from the NIST ThermoML archive (doi:10.1021/je0340755).

Test: xn = mol fraction of the nth substance listed
Conditions: 101.3 kPa, Liquid; for viscosity: Capillary tube (Ostwald / Ubbelohde) method

OCCCCO [1,4-butanediol] + O
Conditions | mass density, 318.15 K [kg/m3] | mass density, 328.15 K [kg/m3] | mass density, 338.15 K [kg/m3] | speed of sound, 318.15 K [m/s] | speed of sound, 328.15 K [m/s] | speed of sound, 338.15 K [m/s] | viscosity, 328.15 K [mPa·s] | viscosity, 338.15 K [mPa·s]
x2 = 0.055 | – | 994.94 | 988.66 | – | 1554.9 | 1531.3 | 18.38 | 12.72
x2 = 0.1534 | – | 996.05 | 989.67 | – | 1564.8 | 1540.8 | 16.32 | 11.28
x2 = 0.2472 | – | 997.2 | 990.72 | – | 1575.6 | 1549.4 | 14.35 | 9.897
x2 = 0.3542 | – | 998.64 | 992.05 | – | 1590.3 | 1562.2 | 12.12 | 8.335
x2 = 0.4531 | – | 999.93 | 993.23 | – | 1605 | 1575.1 | 10.08 | 6.914
x2 = 0.498 | – | 1000.44 | 993.7 | 1640 | 1610.8 | 1580.7 | 9.167 | 6.279
x2 = 0.5578 | 1008.07 | 1001.01 | 994.23 | 1648.7 | 1618.6 | 1588.5 | 7.972 | 5.449
x2 = 0.6513 | 1008.53 | 1001.51 | 994.7 | 1661.1 | 1631.1 | 1599 | 6.178 | 4.213
x2 = 0.7496 | 1007.83 | 1000.99 | 994.27 | 1671.4 | 1641.4 | 1611.3 | 4.438 | 3.033
x2 = 0.8475 | 1004.59 | 998.24 | 991.81 | 1669 | 1642.3 | 1615.6 | 2.877 | 2
x2 = 0.9081 | 1000.44 | 994.62 | 988.57 | 1645 | 1626.3 | 1606.6 | 1.965 | 1.404
x2 = 0.9152 | 999.82 | 994.08 | 988.08 | 1640.3 | 1623.2 | 1605.1 | 1.858 | 1.335
x2 = 0.9253 | 998.88 | 993.26 | 987.35 | 1633.3 | 1618 | 1601.7 | 1.705 | 1.235
x2 = 0.9355 | 997.88 | 992.38 | 986.56 | 1624.2 | 1611.8 | 1597.4 | 1.549 | 1.133
x2 = 0.9543 | 995.86 | 990.62 | 984.97 | 1604.9 | 1597.3 | 1587.8 | 1.257 | 0.941
x2 = 0.955 | 995.78 | 990.55 | 984.91 | 1603.8 | 1596.3 | 1586.8 | 1.246 | 0.934
x2 = 0.9597 | 995.24 | 990.08 | 984.49 | 1598.2 | 1592.2 | 1584.2 | 1.172 | 0.885
x2 = 0.9699 | 994.03 | 989.02 | 983.54 | 1584.8 | 1581.9 | 1577.1 | 1.009 | 0.776
x2 = 0.9804 | 992.74 | 987.89 | 982.52 | 1568.2 | 1569.6 | 1569 | 0.837 | 0.662
x2 = 0.9901 | 991.5 | 986.81 | 981.56 | 1552.7 | 1558.3 | 1560 | 0.674 | 0.553
x2 = 0.9924 | 991.2 | 986.55 | 981.32 | 1548.3 | 1555.3 | 1558.2 | 0.635 | 0.527
x2 = 0.9955 | 990.8 | 986.2 | 981.01 | 1542.8 | 1550.2 | 1554.5 | 0.581 | 0.491
